Laboratory results reported in patent US20200255884A1, “METHOD OF DETECTION OF DNA END(S) AND ITS USE” (INTODNA SP. Z O.O., priority 2017, published 2020).

Test system: HeLa 21-4 cells
Experiment: DNA ends detection in fixed HeLa cells subjected to damaging agents (H2O2, Tpt), Procedure 1
Format: cell-based
Settings: 30 min at 37 °C, H2O2 4 mM, Tpt 20 μM
Method: Procedure: • 1. Pre-preparation (optional): • Incubation of live cells with 0.5-10 mM Tris (5 min-1 h at room temperature (RT)), cells should be monitored for morphological abnormalities. • 2. Fixation and permeabilization: • a. Incubation with 1%-4% formaldehyde solution, 10-15 min, 4° C. (optional) • b. Incubation with an […] detergent (e.g. Triton X-100 (0.25-3%) 10 min-1 h, RT. (optional) • c. Incubation in 70% ethanol in water, 1 h minimum but preferred 12-18 h, −20° C., sample should be stable for several months. (optional but most preferred) • 3. Pre-blocking (optional): • a. Wash (PBS 1×5 min) • b. Streptavidin solution—incubation performed on a droplet, 30 min, RT • c. Wash (PBS 3×5 min) • d. Biotin solution—incubation performed on a droplet, 30 min, RT • e. Wash (PBS 3×5 min) • 4. Increasing accessibility of DNA ends: • Incubation with 0.5-10 mM EDTA in water, 10 min-1 h, RT. • 5. Incorporation procedure: • Incorporation of unmodified and modified nucleotides (e.g. BrdU) using terminal deoxynucleotidyl transferase: • a. incubation is performed on a droplet in a humid chamber • b. samples are rinsed in wash buffers • 6. Blocking: • Incubation with 1-5% BSA solution in PBS (from 1 h to overnight in 4° C., RT). • 7. Incubation with primary antibodies—performed on a droplet in a humid chamber: • a. primary antibodies type 1 (e.g. mouse monoclonal against BrdU), preferred dilution 1:100 in 1-5% BSA, 1 h, RT • b. wash (PBS 3×5 min) • c. primary antibodies type 2 (e.g. rabbit polyclonal against BrdU), preferred dilution 1:100 in 1-5% BSA, 1 h, RT • d. wash (PBS 3×5 min) • 8. PLA procedure: • a. incubation with PLA Probes diluted in 1% BSA (37° C., 60 min, reaction on a droplet, in a humid chamber) in 40 μl of the reaction mixture per one coverslip: • 8 μl of PLA Probe MINUS stock (e.g. anti-mouse) • 8 μl of PLA Probe PLUS stock (e.g. anti-rabbit) • 24 μl of 1% BSA • b. wash samples with Wash Buffer A (2×5 min) • c. ligation—incubation (37° C., 30 min, reaction on a droplet, in a humid chamber) in 40 μl of the reaction mixture per one coverslip: • 8 μl of 5× Ligation stock (Sigma, Duolink, DUO82009), • 31 μl of ultrapure, RNAse/DNAse free, distilled water, • 1 μl of Ligase (1 U/μl) (Sigma, Duolink, DUO82027 or DUO82029) • d. wash samples with Wash Buffer A (2×2 min) • e. amplification—incubation (37° C., 100 min, reaction performed on a droplet, in a humid chamber) in 40 μl of the reaction mixture per one coverslip: • 8 μl of 5× Amplification stock (Sigma, Duolink, DUO82060 or DUO82011), • 31.5 μl of ultrapure, RNAse/DNAse free, distilled water, • 0.5 μl of Polymerase (10 U/μl) (Sigma, Duolink, DUO82028 or DUO82030) • 9. Imaging of samples in PBS using a fluorescence microscope. […]

For `OO` [H2O2], the “percentage of cells that show signs of heavy DNA damage (apoptotic cells) in the population” value (untreated less than 5%) was “approximately 30%” and the “average number of detectable regions of incorporation of BrdU (free ends of DNA) per cell” value (± standard error of the mean) was 31.57±8.61.
